Among the data in patent publication US20240025919A1, “AZA-TETRACYCLIC OXAZEPINE COMPOUNDS AND USES THEREOF” (Genentech, Inc., priority 2022, published 2024) are IC50 values, retold here.

One experiment addresses KRAS WT (Homo sapiens (Human), UniProt P01116). Briefly: KRAS WT Biochemical Assay, BODIPY-GDP Exchange TR-FRET (Example 501; 3 nM KRAS WT, 3 nM SOS1, 60-minute incubation). Put shortly:
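SOS1-mediated exchange assay: 3 nM biotin-KRAS WT with terbium-streptavidin, started with 3 nM SOS1 and 300 nM BODIPY-GDP, HEPES pH 7.5 with MgCl2. TR-FRET (520/490 nm) read after 60 min; normalized to DMSO and full-inhibition control, IC50 from 4-parameter Hill fit.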
(In TR-FRET formats the signal depends on donor and acceptor labels being close together.)

For the next experiment, the target named is KRAS G12D (Homo sapiens (Human), UniProt P01116, G12D). Briefly: KRAS G12D LoEnz Biochemical Assay, BODIPY-GDP Exchange TR-FRET (SOS1-mediated nucleotide exchange). To be noted: read-out: KRas (G12D) GDP HTRF IC50.
KRAS G12D, sequence (P01116-2 other isoform, or with tags, fused parts or gaps G12D): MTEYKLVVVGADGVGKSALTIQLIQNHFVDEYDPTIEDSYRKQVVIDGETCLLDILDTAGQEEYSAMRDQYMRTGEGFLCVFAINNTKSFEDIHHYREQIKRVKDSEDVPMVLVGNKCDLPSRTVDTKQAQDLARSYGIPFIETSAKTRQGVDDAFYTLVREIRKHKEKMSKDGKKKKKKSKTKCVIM
Where [1] appears, read: read-out: KRas(wt) GDP HTRF IC50.

SMILES strings stand for the structures. Where two headings read alike, the source gives them in different places.

KRAS WT, sequence (P01116-2 other isoform, or with tags, fused parts or gaps): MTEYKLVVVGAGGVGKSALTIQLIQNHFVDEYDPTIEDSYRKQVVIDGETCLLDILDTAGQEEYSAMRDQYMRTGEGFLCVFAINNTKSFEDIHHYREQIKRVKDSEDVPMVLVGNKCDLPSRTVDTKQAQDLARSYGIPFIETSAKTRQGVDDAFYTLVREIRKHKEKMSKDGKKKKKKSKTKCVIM

The IC50 is the concentration at which inhibition is half-maximal. Turning to `Cc1cc(N)nc(-c2nc3c4c(nc(OC[C@@]56CCCN5CC5(CC5(F)F)C6)nc4c2F)N2C[C@H]4CC[C@H](N4)[C@H]2CO3)c1C(F)(F)F` (stereo partly drawn) [Compound 42, 6-((5aS,6S,9R)-12-(((7a'S)-2,2-difluorodihydro-1′H,3′H-spiro[cyclopropane-1,2′-pyrrolizin]-7a′(5′H)-yl)methoxy)-1-fluoro-5a,6,7,8,9,10-hexahydro-5H-4-oxa-3,10a,11,13,14-pentaaza[6,9]methanonaphtho[1,8-ab]heptalen-2-yl)-4-methyl-5-(trifluoromethyl)pyridin-2-amine], the IC50 at KRAS WT (setting [1]) was 45.2 nM; on KRAS G12D, 0.47 nM.
The like results for `Cc1cc(N)c(F)c(-c2nc3c4c(nc(OCC56CCN5CC(F)(F)C6)nc4c2F)N2C[C@H]4CC[C@H](N4)[C@H]2[C@H](C)O3)c1C(F)(F)F` (mixture of isomers) [Compound 33, 3-((5S,5aS,6S,9R)-12-((3,3-Difluoro-1-azabicyclo[3.2.0]heptan-5-yl)methoxy)-1-fluoro-5-methyl-5a,6,7,8,9,10-hexahydro-5H-4-oxa-3,10a,11,13,14-pentaaza-6,9-methanonaphtho[1,8-ab]heptalen-2-yl)-2-fluoro-5-methyl-4-(trifluoromethyl)aniline] were, in that order, 7.53 nM and 0.23 nM.
Turning to `Cc1nc(N)cc(-c2nc3c4c(nc(OC[C@@]56CCCN5CC5(CC5(F)F)C6)nc4c2F)N2C[C@H]4CC[C@H](N4)[C@H]2[C@H](C(F)(F)F)O3)c1C(F)(F)F` (stereo partly drawn) [Compound 254, 4-((5R,5aS,6S,9R)-12-(((7a′S)-2,2-Difluorodihydro-1′H,3′H-spiro[cyclopropane-1,2′-pyrrolizin]-7a′(5′H)-yl)methoxy)-1-fluoro-5-(trifluoromethyl)-5a,6,7,8,9,10-hexahydro-5H-4-oxa-3,10a,11,13,14-pentaaza[6,9]methanonaphtho[1,8-ab]heptalene-2-yl)-6-methyl-5-(trifluoromethyl)pyridin-2-amine], the IC50 at KRAS WT (read-out: KRas HTRF IC50) was 1.25 nM; on KRAS G12D it was 0.49 nM.
The matching figures for `COC1(C(F)F)CN(CC2(COc3nc4c5c(nc(-c6cc(N)nc(C)c6C(F)(F)F)c(F)c5n3)O[C@@H](C)[C@@H]3[C@@H]5CC[C@H](CN43)N5)CC2)C1` [Compound 271, 4-((5S,5aS,6S,9R)-12-((1-((3-(difluoromethyl)-3-methoxyazetidin-1-yl)methyl)cyclopropyl)methoxy)-1-fluoro-5-methyl-5a,6,7,8,9,10-hexahydro-5H-4-oxa-3,10a,11,13,14-pentaaza-6,9-methanonaphtho[1,8-ab]heptalene-2-yl)-6-methyl-5-(trifluoromethyl)pyridin-2-amine]: 56.4 nM and 0.51 nM.
For the compound `Cc1cc(N)nc(-c2nc3c4c(ncnc4c2F)N2C[C@H]4CC[C@H](N4)[C@H]2CO3)c1C(F)(F)F` [Compound 52, 6-((5aS,6S,9R)-1-Fluoro-5a,6,7,8,9,10-hexahydro-5H-4-oxa-3,10a,11,13,14-pentaaza-6,9-methanonaphtho[1,8-ab]heptalen-2-yl)-4-methyl-5-(trifluoromethyl)pyridin-2-amine], the IC50 on KRAS WT (setting [1]) stood at 194000 nM; on KRAS G12D it was 2140 nM.
The like results for `C[C@@H]1Oc2nc(-c3cncc4cccc(Cl)c34)c(F)c3nc(OC[C@@]45CCCN4C[C@H](F)C5)nc(c23)N2C[C@H]3CC[C@H](N3)[C@@H]12` [Compound 38, (5S,5aS,6S,9R)-2-(5-Chloroisoquinolin-4-yl)-1-fluoro-12-(((2R,7aS)-2-fluorotetrahydro-1H-pyrrolizin-7a(5H)-yl)methoxy)-5-methyl-5a,6,7,8,9,10-hexahydro-5H-4-oxa-3,10a,11,13,14-pentaaza-6,9-methanonaphtho[1,8-ab]heptalene] were, in that order, 697 nM and 13.9 nM.
As for `Cc1nc(N)cc(-c2nc3c4c(nc(OCC5(CN6CC7CC(C6)O7)CC5)nc4c2F)N2C[C@H]4CC[C@H](N4)[C@H]2[C@H](C)O3)c1C(F)(F)F` [Compound 265, 4-((5S,5aS,6S,9R)-12-((1-((6-oxa-3-azabicyclo[3.1.1]heptan-3-yl)methyl)cyclopropyl)methoxy)-1-fluoro-5-methyl-5a,6,7,8,9,10-hexahydro-5H-4-oxa-3,10a,11,13,14-pentaaza-6,9-methanonaphtho[1,8-ab]heptalene-2-yl)-6-methyl-5-(trifluoromethyl)pyridin-2-amine], the IC50 was 14.1 nM on KRAS WT (read-out: KRas HTRF IC50) and 0.28 nM at KRAS G12D.
On to `C[C@@H]1Oc2nc(-c3cc(N)c(F)c(F)c3CC(F)(F)F)c(F)c3nc(OC[C@@]45CCCN4C[C@H](F)C5)nc(c23)N2C[C@H]3CC[C@H](N3)[C@@H]12` [Compound 183, 2,3-Difluoro-5-((5S,5aS,6S,9R)-1-fluoro-12-(((2R,7aS)-2-fluorotetrahydro-1H-pyrrolizin-7a(5H)-yl)methoxy)-5-methyl-5a,6,7,8,9,10-hexahydro-5H-4-oxa-3,10a,11,13,14-pentaaza-6,9-methanonaphtho[1,8-ab]heptalene-2-yl)-4-(2,2,2-trifluoroethyl)aniline], for which the IC50 at KRAS WT (read-out: KRas HTRF IC50) is 4.46 nM; on KRAS G12D, 0.21 nM.
Consider `Cc1cc(N)c(F)c(-c2nc3c4c(nc(OC[C@@H]5CC[C@H]6COCCN65)nc4c2F)N2C[C@H]4CC[C@H](N4)[C@H]2[C@H](C)O3)c1CC(F)F` [Compound 231, 4-(2,2-Difluoroethyl)-2-fluoro-3-((5S,5aS,6S,9R)-1-fluoro-12-(((6S,8aS)-hexahydro-1H-pyrrolo[2,1-c][1,4]oxazin-6-yl)methoxy)-5-methyl-5a,6,7,8,9,10-hexahydro-5H-4-oxa-3,10a,11,13,14-pentaaza-6,9-methanonaphtho[1,8-ab]heptalen-2-yl)-5-methylaniline], for which the IC50 was 1240 nM at KRAS WT (read-out: KRas HTRF IC50) and 4.6 nM on KRAS G12D.
The matching figures for `Cc1cc(N)c(F)c(-c2nc3c4c(nc(OC[C@@]56CCCN5C[C@H](F)C6)nc4c2F)N2C[C@H]4CC[C@H](N4)[C@H]2[C@H](C)O3)c1CC(F)(F)F` [Compound 182, 2-Fluoro-3-((5S,5aS,6S,9R)-1-fluoro-12-(((2R,7aS)-2-fluorotetrahydro-1H-pyrrolizin-7°(5H)-yl)methoxy)-5-methyl-5°,6,7,8,9,10-hexahydro-5H-4-oxa-3,10°,11,13,14-pentaaza-6,9-methanonaphtho[1,8-ab]heptalen-2-yl)-5-methyl-4-(2,2,2-trifluoroethyl)aniline]: 33.9 nM and 0.269 nM.
Turning to `C[C@@H]1Oc2nc(-c3cc(N)c(F)c(Cl)c3CC(F)F)c(F)c3nc(OC[C@@]45CCCN4C[C@H](F)C5)nc(c23)N2C[C@H]3CC[C@H](N3)[C@@H]12` [Compound 186, 3-Chloro-4-(2,2-difluoroethyl)-2-fluoro-5-((5S,5aS,6S,9R)-1-fluoro-12-(((2R,7aS)-2-fluorotetrahydro-1H-pyrrolizin-7a(5H)-yl)methoxy)-5-methyl-5a,6,7,8,9,10-hexahydro-5H-4-oxa-3,10a,11,13,14-pentaaza-6,9-methanonaphtho[1,8-ab]heptalene-2-yl)aniline], the IC50 came to 5.61 nM at KRAS WT (read-out: KRas HTRF IC50) and 0.1 nM on KRAS G12D.
As to `Cc1nc(N)cc(-c2nc3c4c(nc(OC[C@@]56CCCN5C[C@H](F)C6)nc4c2F)N2C[C@H]4CC[C@H](N4)[C@H]2[C@H](C(F)(F)F)O3)c1C(F)(F)F` [Compound 242, 4-((5R,5aS,6S,9R)-1-Fluoro-12-(((2R,7aS)-2-fluorotetrahydro-1H-pyrrolizin-7a(5H)-yl)methoxy)-5-(trifluoromethyl)-5a,6,7,8,9,10-hexahydro-5H-4-oxa-3,10a,11,13,14-pentaaza-6,9-methanonaphtho[1,8-ab]heptalen-2-yl)-6-methyl-5-(trifluoromethyl)pyridin-2-amine], the IC50 stood at 5.29 nM at KRAS WT (read-out: KRas HTRF IC50) and 0.33 nM on KRAS G12D.
In the case of `Cc1nc(N)c(F)c(-c2nc3c4c(nc(OCC5(CN6C[C@@H]7C[C@H]6CO7)CC5)nc4c2F)N2C[C@H]4CC[C@H](N4)[C@H]2[C@H](C)O3)c1C(F)(F)F` [Compound 222, 4-((5S,5aS,6S,9R)-12-((1-(((1S,4S)-2-Oxa-5-azabicyclo[2.2.1]heptan-5-yl)methyl)cyclopropyl)methoxy)-1-fluoro-5-methyl-5a,6,7,8,9,10-hexahydro-5H-4-oxa-3,10a,11,13,14-pentaaza-6,9-methanonaphtho[1,8-ab]heptalene-2-yl)-3-fluoro-6-methyl-5-(trifluoromethyl)pyridin-2-amine], the IC50 stood at 45.7 nM on KRAS WT (read-out: KRas HTRF IC50) and 3.39 nM on KRAS G12D.
For `Cc1c(F)c(N)cc(-c2nc3c4c(nc(OC[C@@]56CCCN5C[C@H](F)C6)nc4c2F)N2CCNC[C@H]2C(C)O3)c1C(F)(F)F` (single isomer, unassigned) [235 (isomer 2)], the figures for the 50% inhibitory concentration (IC50) on KRAS WT (read-out: KRas HTRF IC50) and on KRAS G12D were 2.63 nM and 0.48 nM, respectively.
In the case of `Cc1nc(N)cc(-c2nc3c4c(nc(OCC5(CN6C[C@@H]7C[C@H]6CO7)CC5)nc4c2F)N2C[C@H]4CC[C@H](N4)[C@H]2[C@H](C)O3)c1C(F)(F)F` [Compound 208, 4-((5S,5aS,6S,9R)-12-((1-(((1S,4S)-2-Oxa-5-azabicyclo[2.2.1]heptan-5-yl)methyl)cyclopropyl)methoxy)-1-fluoro-5-methyl-5a,6,7,8,9,10-hexahydro-5H-4-oxa-3,10a,11,13,14-pentaaza-6,9-methanonaphtho[1,8-ab]heptalene-2-yl)-6-methyl-5-(trifluoromethyl)pyridin-2-amine], the figures for the IC50 on KRAS WT (read-out: KRas HTRF IC50) and at KRAS G12D were 24.7 nM and 0.31 nM, respectively.
Take `C[C@@H]1Oc2nc(N(C)c3ccc(F)c(N)c3)c(F)c3nc(OC[C@@]45CCCN4C[C@H](F)C5)nc(c23)N2C[C@H]3CC[C@H](N3)[C@@H]12` [Compound 193, 4-fluoro-Ni-((5S,5aS,6S,9R)-1-fluoro-12-(((2R,7aS)-2-fluorotetrahydro-1H-pyrrolizin-7a(5H)-yl)methoxy)-5-methyl-5a,6,7,8,9,10-hexahydro-5H-4-oxa-3,10a,11,13,14-pentaaza-6,9-methanonaphtho[1,8-ab]heptalen-2-yl)-Ni-methylbenzene-1,3-diamine]: the figures for the IC50 at KRAS WT (read-out: KRas HTRF IC50) and on KRAS G12D were 128000 nM and 32800 nM, respectively.
